± gives the standard deviation of the averaged measurements. One block for each compound: values may come before it.
Experiment: TIMS collisional cross section (CCS, N2) of the lipid ion; higher = larger ion cross section
Conditions: ionization mode: negative, one isomer drawn
Experimental: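 Lipid extracts of human plasma (NIST SRM 1950), mouse liver or HeLa cells were separated by nanoflow C18 LC (30 min gradient) and analysed by TIMS-PASEF on a timsTOF Pro. Ion mobility was calibrated with the Agilent tuning mix (negative mode ions) and converted to collisional cross sections (Mason–Schamp, N2).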

[1] = sample type: Mouse Liver, ion (formula + adduct): [C43H76NO7P-H] 1-
[2] = sample type: Mouse Liver, ion (formula + adduct): [C40H75O10P-H] 1-
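Note: lipids from MTBE extraction, five replicate injections per sample, 100 ms TIMS ramp spanning 0.6–1.95 Vs/cm², lipid identity assigned from PASEF MS/MS spectra.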

Structure (SMILES): CC/C=C\C/C=C\C/C=C\C/C=C\C/C=C\C/C=C\CCC(=O)OC[C@H](COP(=O)(O)OCCN)OC(=O)CCCCCCCCCCCCC [PE 22:6_14:0]
TIMS collisional cross section (sample type: Mouse Liver, ion (formula + adduct): [C41H70NO8P-H] 1-): 268.2 Å²

Structure (SMILES): CC/C=C\C/C=C\C/C=C\C/C=C\C/C=C\C/C=C\CCC(=O)OC[C@H](COP(=O)(O)OCCN)OC(=O)CCCCCCC/C=C\C/C=C\CCCCC [PE 22:6_18:2]
TIMS collisional cross section (sample type: Mouse Liver, ion (formula + adduct): [C45H74NO8P-H] 1-): 276.6 Å²

Structure (SMILES): CC/C=C\C/C=C\C/C=C\C/C=C\C/C=C\CCCC(=O)O[C@H](COCCCCCCCCCCCCCCCC)COP(=O)(O)OCCN [PE O- 16:0@_20:5]
TIMS collisional cross section (sample type: Human plasma, ion (formula + adduct): [C41H74NO7P+AcO] 1-): 280.1 Å²

Structure (SMILES): CC/C=C\C/C=C\C/C=C\C/C=C\C/C=C\C/C=C\CCC(=O)O[C@H](COCCCCCCCCCCCCCCCC)COP(=O)(O)OCCN [PE O- 16:0@_22:6]
TIMS collisional cross section (sample type: Human plasma, ion (formula + adduct): [C43H76NO7P-H] 1-): 274 Å²
TIMS collisional cross section [1]: 273.4 Å²

Structure (SMILES): CCCCCCC/C=C\CCCCCCCC(=O)O[C@H](COCCCCCCCCCCCCCCCCCC)COP(=O)(O)OCCN [PE O- 18:0@_17:1]
TIMS collisional cross section (sample type: Human plasma, ion (formula + adduct): [C40H80NO7P+AcO] 1-): 292.4 Å²

Structure (SMILES): CCCCCCCCCCCCCCCCCCOC[C@H](COP(=O)(O)OCCN)OC(=O)CCCCCCCCCCCCCCCCCC [PE O- 18:0@_19:0]
TIMS collisional cross section (sample type: Human plasma, ion (formula + adduct): [C42H86NO7P+AcO] 1-): 298 Å²

Structure (SMILES): CCCCCCCCCCCCCCCCCCOC[C@H](COP(=O)(O)OCCN)OC(=O)CCCCCCCCCCCCCCCC [PE O- 18:0_17:0]
TIMS collisional cross section (sample type: Mouse Liver, ion (formula + adduct): [C40H82NO7P-CH3] 1-): 267.9 Å²

Structure (SMILES): CC/C=C\C/C=C\C/C=C\C/C=C\CCCCC(=O)O[C@H](CO/C=C\CCCCCCCCCCCCCC)COP(=O)(O)OCCN [PE P- 16:0@_18:4]
TIMS collisional cross section (sample type: Human plasma, ion (formula + adduct): [C39H70NO7P+AcO] 1-): 275.7 Å²

Structure (SMILES): CCCCC/C=C\C/C=C\C/C=C\CCCCCCC(=O)O[C@H](CO/C=C\CCCCCCCCCCCCCC)COP(=O)(O)OCCN [PE P- 16:0@_20:3]
TIMS collisional cross section (sample type: Human plasma, ion (formula + adduct): [C41H76NO7P-H] 1-): 271.2 Å²
TIMS collisional cross section (sample type: Mouse Liver, ion (formula + adduct): [C41H76NO7P-H] 1-): 271.2 Å²

Structure (SMILES): CC/C=C\C/C=C\C/C=C\C/C=C\C/C=C\CCCC(=O)O[C@H](CO/C=C\CCCCCCCCCCCCCC)COP(=O)(O)OCCN [PE P- 16:0@_20:5]
TIMS collisional cross section (sample type: Human plasma, ion (formula + adduct): [C41H72NO7P+AcO] 1-): 283.1 Å²
TIMS collisional cross section (sample type: Human plasma, ion (formula + adduct): [C41H72NO7P-H] 1-): 268.9 Å²

Structure (SMILES): CC/C=C\C/C=C\C/C=C\C/C=C\C/C=C\C/C=C\CCC(=O)O[C@H](CO/C=C\CCCCCCCCCCCCCC)COP(=O)(O)OCCN [PE P- 16:0@_22:6]
TIMS collisional cross section (sample type: Human plasma, ion (formula + adduct): [C43H74NO7P-H] 1-): 274 Å²
TIMS collisional cross section (sample type: Mouse Liver, ion (formula + adduct): [C43H74NO7P-H] 1-): 274.6 Å²

Structure (SMILES): CCCCC/C=C\C/C=C\CCCCCCCC(=O)O[C@H](CO/C=C\CCCCCCCCCCCCCCCCCC)COP(=O)(O)OCCN [PE P- 20:0@_18:2]
TIMS collisional cross section (sample type: Human plasma, ion (formula + adduct): [C43H82NO7P-H] 1-): 278.6 Å²

Structure (SMILES): CCCCC/C=C\C/C=C\CCCCCCCC(=O)O[C@H](COC(=O)CCCCCCCCCCCCCCC)COP(=O)(O)OC[C@@H](O)CO [PG 16:0_18:2]
TIMS collisional cross section [2]: 273.4 Å²

Structure (SMILES): CC/C=C\C/C=C\C/C=C\C/C=C\C/C=C\C/C=C\CCC(=O)O[C@H](COC(=O)CCCCCCC/C=C\CCCCCCC)COP(=O)(O)OC[C@@H](O)CO [PG 17:1@_22:6]
TIMS collisional cross section (sample type: Human plasma, ion (formula + adduct): [C45H75O10P+OAcO] 1-): 294.7 Å²

Structure (SMILES): CC/C=C\C/C=C\C/C=C\C/C=C\C/C=C\C/C=C\CCC(=O)O[C@H](COC(=O)CCCCCCC/C=C\CCCCCCCC)COP(=O)(O)OC[C@@H](O)CO [PG 18:1_22:6@]
TIMS collisional cross section (sample type: Mouse Liver, ion (formula + adduct): [C46H77O10P-H] 1-): 288.6 Å²

Next, values leading:

TIMS collisional cross section (sample type: Human plasma, ion (formula + adduct): [C45H76NO8P-H] 1-): 278.4 Å²
Structure (SMILES): CC/C=C\C/C=C\C/C=C\C/C=C\C/C=C\C/C=C\CCC(=O)OC[C@H](COP(=O)(O)OCCN)OC(=O)CCCCCCC/C=C\CCCCCCCC [PE 22:6@_18:1]

TIMS collisional cross section (sample type: Mouse Liver, ion (formula + adduct): [C47H72NO8P-H] 1-): 279.4 Å²
Structure (SMILES): CC/C=C\C/C=C\C/C=C\C/C=C\C/C=C\C/C=C\CCC(=O)OC[C@H](COP(=O)(O)OCCN)OC(=O)CCC/C=C\C/C=C\C/C=C\C/C=C\C/C=C\CC [PE 22:6@_20:5]

TIMS collisional cross section (sample type: Mouse Liver, ion (formula + adduct): [C43H72NO8P-H] 1-): 272.7 Å²
Structure (SMILES): CC/C=C\C/C=C\C/C=C\C/C=C\C/C=C\C/C=C\CCC(=O)OC[C@H](COP(=O)(O)OCCN)OC(=O)CCCCCCC/C=C\CCCCCC [PE 22:6_16:1]

TIMS collisional cross section (sample type: Mouse Liver, ion (formula + adduct): [C45H76NO8P-H] 1-): 279.5 ± 0.85 Å²
Structure (SMILES): CC/C=C\C/C=C\C/C=C\C/C=C\C/C=C\C/C=C\CCC(=O)OC[C@H](COP(=O)(O)OCCN)OC(=O)CCCCCCC/C=C\CCCCCCCC [PE 22:6_18:1]

TIMS collisional cross section (sample type: Mouse Liver, ion (formula + adduct): [C47H82NO8P-H] 1-): 287.5 Å²
Structure (SMILES): CC/C=C\C/C=C\C/C=C\C/C=C\C/C=C\C/C=C\CCC(=O)OC[C@H](COP(=O)(O)OCCN)OC(=O)CCCCCCCCCCCCCCCCCCC [PE 22:6_20:0]

TIMS collisional cross section (sample type: Mouse Liver, ion (formula + adduct): [C49H74NO8P-H] 1-): 283.9 Å²
Structure (SMILES): CC/C=C\C/C=C\C/C=C\C/C=C\C/C=C\C/C=C\CCC(=O)OC[C@H](COP(=O)(O)OCCN)OC(=O)CC/C=C\C/C=C\C/C=C\C/C=C\C/C=C\C/C=C\CC [PE 22:6_22:6]

TIMS collisional cross section (sample type: Human plasma, ion (formula + adduct): [C38H78NO7P+AcO] 1-): 287.3 Å²
Structure (SMILES): CCCCCCCCCCCCCCCCCCOC[C@H](COP(=O)(O)OCCN)OC(=O)CCCCCCCCCCCCCC [PE O- 18:0@_15:0]

TIMS collisional cross section (sample type: Human plasma, ion (formula + adduct): [C44H88NO7P+AcO] 1-): 303.7 Å²
Structure (SMILES): CCCCCCCCC/C=C\CCCCCCCC(=O)O[C@H](COCCCCCCCCCCCCCCCCCCCC)COP(=O)(O)OCCN [PE O- 20:0@_19:1]

TIMS collisional cross section (sample type: Human plasma, ion (formula + adduct): [C39H74NO7P-H] 1-): 265.6 Å²
Structure (SMILES): CCCCC/C=C\C/C=C\CCCCCCCC(=O)O[C@H](CO/C=C\CCCCCCCCCCCCCC)COP(=O)(O)OCCN [PE P- 16:0@_18:2]

TIMS collisional cross section (sample type: Mouse Liver, ion (formula + adduct): [C41H80NO7P-H] 1-): 273.5 Å²
Structure (SMILES): CCCCCCCC/C=C\CCCCCCCCCC(=O)O[C@H](CO/C=C\CCCCCCCCCCCCCC)COP(=O)(O)OCCN [PE P- 16:0@_20:1]

TIMS collisional cross section (sample type: Human plasma, ion (formula + adduct): [C43H78NO7P-H] 1-): 276.3 Å²
Structure (SMILES): CCCCC/C=C\C/C=C\C/C=C\C/C=C\CCCCCC(=O)O[C@H](CO/C=C\CCCCCCCCCCCCCC)COP(=O)(O)OCCN [PE P- 16:0@_22:4]

TIMS collisional cross section (sample type: Human plasma, ion (formula + adduct): [C41H74NO7P-H] 1-): 270.1 Å²
TIMS collisional cross section (sample type: Mouse Liver, ion (formula + adduct): [C41H74NO7P-H] 1-): 270.1 Å²
Structure (SMILES): CCCCC/C=C\C/C=C\C/C=C\C/C=C\CCCC(=O)O[C@H](CO/C=C\CCCCCCCCCCCCCC)COP(=O)(O)OCCN [PE P- 16:0_20:4]

TIMS collisional cross section (sample type: Human plasma, ion (formula + adduct): [C41H78NO7P-CH3] 1-): 269 Å²
Structure (SMILES): CCCCC/C=C\C/C=C\CCCCCCCC(=O)O[C@H](CO/C=C\CCCCCCCCCCCCCCCC)COP(=O)(O)OCCN [PE P- 18:0@_18:2]

TIMS collisional cross section [1]: 274.5 Å²
Structure (SMILES): CC/C=C\C/C=C\C/C=C\C/C=C\C/C=C\CCCC(=O)O[C@H](CO/C=C\CCCCCCCCCCCCCCCC)COP(=O)(O)OCCN [PE P- 18:0@_20:5]

TIMS collisional cross section (sample type: Human plasma, ion (formula + adduct): [C45H78NO7P-CH3] 1-): 276.8 Å²
Structure (SMILES): CC/C=C\C/C=C\C/C=C\C/C=C\C/C=C\C/C=C\CCC(=O)O[C@H](CO/C=C\CCCCCCCCCCCCCCCC)COP(=O)(O)OCCN [PE P- 18:0@_22:6]

TIMS collisional cross section (sample type: Human plasma, ion (formula + adduct): [C41H78NO7P-H] 1-): 272.4 Å²
Structure (SMILES): CCCCC/C=C\C/C=C\CCCCCCCC(=O)O[C@H](CO/C=C\CCCCCCCCCCCCCCCC)COP(=O)(O)OCCN [PE P- 18:0_18:2]

TIMS collisional cross section (sample type: Mouse Liver, ion (formula + adduct): [C45H82NO7P-H] 1-): 281.9 Å²
Structure (SMILES): CCCCC/C=C\C/C=C\C/C=C\C/C=C\CCCCCC(=O)O[C@H](CO/C=C\CCCCCCCCCCCCCCCC)COP(=O)(O)OCCN [PE P- 18:0_22:4]

TIMS collisional cross section (sample type: Mouse Liver, ion (formula + adduct): [C45H76NO7P-H] 1-): 278.5 Å²
Structure (SMILES): CC/C=C\C/C=C\C/C=C\C/C=C\C/C=C\C/C=C\CCC(=O)O[C@H](CO/C=C\CCCCCC/C=C\CCCCCCCC)COP(=O)(O)OCCN [PE P- 18:1@_22:6]

TIMS collisional cross section (sample type: Mouse Liver, ion (formula + adduct): [C40H77O10P-H] 1-): 275.7 Å²
Structure (SMILES): CCCCCCCCC=CCCCCCCCC(=O)OC(COC(=O)CCCCCCCCCCCCCCC)COP(=O)(O)OCC(O)CO (stereo not given) [PG 16:0_18:1]

TIMS collisional cross section [2]: 276.9 Å²
Structure (SMILES): CCCCCC/C=C\CCCCCCCC(=O)O[C@H](COC(=O)CCCCCCC/C=C\CCCCCCCC)COP(=O)(O)OC[C@@H](O)CO [PG 18:1_16:1]

— the supplement of paper PMC6965134
